Experimental data as given in patent US20260355196A1, “INHIBITORS AND DEGRADERS OF PIP4K PROTEIN” (Larkspur Biosciences, Inc., priority 2023, published 2026).

Target: T1, PIP4K2C (Homo sapiens, UniProt Q8TBX8)
T1 sequence (Q8TBX8 1-421): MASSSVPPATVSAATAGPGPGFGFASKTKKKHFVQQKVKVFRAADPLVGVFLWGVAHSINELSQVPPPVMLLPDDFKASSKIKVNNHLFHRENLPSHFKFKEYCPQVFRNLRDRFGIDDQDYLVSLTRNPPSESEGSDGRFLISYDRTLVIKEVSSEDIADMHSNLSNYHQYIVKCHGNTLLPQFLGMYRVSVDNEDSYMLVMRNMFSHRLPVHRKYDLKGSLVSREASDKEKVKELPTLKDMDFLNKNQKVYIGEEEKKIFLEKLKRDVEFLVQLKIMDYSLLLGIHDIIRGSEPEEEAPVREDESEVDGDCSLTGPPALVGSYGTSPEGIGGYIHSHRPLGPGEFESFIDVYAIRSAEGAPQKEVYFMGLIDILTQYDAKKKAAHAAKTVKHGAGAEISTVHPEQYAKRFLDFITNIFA
Test: HiBiT PIP4K2C degradation assay in MOLT-4 cells (endogenous PIP4K2C C-terminally tagged with HiBiT)
Format: cell-based
Design: untagged in primary human PBMCs and monocyte-derived dendritic cells
Conditions: 6 hours of incubation time, rather than 24 hours; MOLT-4, top concentration 10 micromolar; read-out: HiBIT-degradation MOLT4 PIP4k2C DC50 (6 hours, marked *)
How it was run: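 MOLT-4 cells with endogenous PIP4K2C C-terminally HiBiT-tagged by CRISPR were treated with a 10-point, 3-fold dilution series from 10 micromolar, in duplicate, for 24 h or 6 h at 37 C. Remaining tagged protein read by HiBiT lytic luminescence; DC50 from Hill-equation fit.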

| DC50 [µM] | SMILES |
| --- | --- |
| < 0.5 | O=C1CCC(Nc2ccc(N3CCC(N4CCC(C(=O)N[C@H]5CC[C@H](Nc6ncc(F)c(-c7cccc(-c8ccccc8)c7)n6)CC5)CC4)C(F)C3)c(F)c2)C(=O)N1 (some centres unmarked) [Compound 656, N-((1r,4r)-4-((4-([1,1′-biphenyl]-3-yl)-5-fluoropyrimidin-2-yl)amino)cyclohexyl)-1′-(4-((2,6-dioxopiperidin-3-yl)amino)-2-fluorophenyl)-3′-fluoro-[1,4′-bipiperidine]-4-carboxamide] |
| < 0.5 | O=C1CCC(Nc2ccc(C3CCN([C@H]4CC[C@H](NC(=O)[C@H]5CC[C@H](Nc6ncc(F)c(-c7cccc(N8CCOCC8)c7)n6)CC5)CC4)CC3)c(F)c2)C(=O)N1 (stereo partly drawn) [Compound 657, trans-(1r,4R)—N-((1r,4R)-4-(4-(4-((2,6-dioxopiperidin-3-yl)amino)-2-fluorophenyl)piperidin-1-yl)cyclohexyl)-4-((5-fluoro-4-(3-morpholinophenyl)pyrimidin-2-yl)amino)cyclohexane-1-carboxamide] |
| < 0.5 | O=C1CCC(Nc2ccc(C3CCN([C@H]4CC[C@H](NC(=O)[C@H]5CC[C@H](Nc6ncc(F)c(-c7cccc(-c8ccccc8)c7)n6)CC5)CC4)CC3)c(F)c2)C(=O)N1 (stereo partly drawn) [Compound 658, trans-(1r,4R)-4-((4-([1,1′-biphenyl]-3-yl)-5-fluoropyrimidin-2-yl)amino)-N-((1r,4R)-4-(4-(4-((2,6-dioxopiperidin-3-yl)amino)-2-fluorophenyl)piperidin-1-yl)cyclohexyl)cyclohexane-1-carboxamide] |
| < 0.5 | O=C1CCC(Nc2ccc(C3CCN([C@H]4CC[C@H](C(=O)N[C@H]5CC[C@H](Nc6ncc(F)c(-c7cccc(N8CCOCC8)c7)n6)CC5)CC4)CC3)c(F)c2)C(=O)N1 (stereo partly drawn) [Compound 659, trans-(1r,4R)-4-(4-(4-((2,6-dioxopiperidin-3-yl)amino)-2-fluorophenyl)piperidin-1-yl)-N-((1r,4R)-4-((5-fluoro-4-(3-morpholinophenyl)pyrimidin-2-yl)amino)cyclohexyl)cyclohexane-1-carboxamide] |
| < 0.5 | O=C1CCC(Nc2ccc(C3CCN([C@H]4CC[C@H](C(=O)N[C@H]5CC[C@H](Nc6ncc(F)c(-c7cccc(-c8ccccc8)c7)n6)CC5)CC4)CC3)c(F)c2)C(=O)N1 (stereo partly drawn) [Compound 660, trans-(1r,4R)—N-((1r,4R)-4-((4-([1,1′-biphenyl]-3-yl)-5-fluoropyrimidin-2-yl)amino)cyclohexyl)-4-(4-(4-((2,6-dioxopiperidin-3-yl)amino)-2-fluorophenyl)piperidin-1-yl)cyclohexane-1-carboxamide] |
| < 0.5 | O=C1CCC(Nc2ccc(N3CCN([C@H]4CC[C@H](NC(=O)[C@H]5CC[C@H](Nc6ncc(F)c(-c7cccc(N8CCOCC8)c7)n6)CC5)CC4)CC3)c(F)c2)C(=O)N1 (stereo partly drawn) [Compound 661, trans-(1r,4R)—N-((1r,4R)-4-(4-(4-((2,6-dioxopiperidin-3-yl)amino)-2-fluorophenyl)piperazin-1-yl)cyclohexyl)-4-((5-fluoro-4-(3-morpholinophenyl)pyrimidin-2-yl)amino)cyclohexane-1-carboxamide] |
| < 0.5 | O=C1CCC(Nc2ccc(N3CCN([C@H]4CC[C@H](NC(=O)[C@H]5CC[C@H](Nc6ncc(F)c(-c7cccc(-c8ccccc8)c7)n6)CC5)CC4)CC3)c(F)c2)C(=O)N1 (stereo partly drawn) [Compound 662, trans-(1r,4R)-4-((4-([1,1′-biphenyl]-3-yl)-5-fluoropyrimidin-2-yl)amino)-N-((1r,4R)-4-(4-(4-((2,6-dioxopiperidin-3-yl)amino)-2-fluorophenyl)piperazin-1-yl)cyclohexyl)cyclohexane-1-carboxamide] |
| < 0.5 | O=C1CCC(Nc2ccc(C3CCN(C(=O)CC4(O)CCN(C(=O)O[C@H]5CC[C@H](Nc6ncc(F)c(-c7cccc(-n8ccccc8=O)c7)n6)CC5)CC4)CC3)c(F)c2)C(=O)N1 (stereo partly drawn) [Compound 663, trans-4-((5-fluoro-4-(3-(2-oxopyridin-1 (2H)-yl)phenyl)pyrimidin-2-yl)amino)cyclohexyl 4-(2-(4-(4-((2,6-dioxopiperidin-3-yl)amino)-2-fluorophenyl)piperidin-1-yl)-2-oxoethyl)-4-hydroxypiperidine-1-carboxylate] |
